From ChEMBL document CHEMBL1151339, “Antitumor agents from bohemic acid complex, III. The isolation of marcellomycin, musettamycin, rudolphomycin, mimimycin, collinemycin, alcindoromycin, and bohemamine” (J Nat Prod, 1980) come the findings set out here.

Test [1] relates to Microsporum canis. As to the kind of experiment: Antifungal activity against Microsporum canis A-9872 by 2-fold tube dilution method. The class given is functional.
Test [2] has as its system Candida albicans. As to the kind of experiment: Antifungal activity against Candida albicans A15049 by 2-fold tube dilution method. The test is classed as functional.
In test [3] the test system is B16. Kind of test: Antitumor activity against mouse B16 cells xenografted in BDF1 mouse at 0.2 mg/kg relative to control. The test is classed as functional.
Test [4] relates to B16. As to the kind of experiment: Antitumor activity against mouse B16 cells xenografted in BDF1 mouse at 0.8 mg/kg relative to control. The class given is functional.
In test [5] the test system is B16. Kind of test: Antitumor activity against mouse B16 cells xenografted in BDF1 mouse at 1.6 mg/kg relative to control. The class given is functional.
In test [6] the test system is L1210. Kind of test: Antitumor activity against mouse L1210 cells xenografted in BDF1 mouse at 3.2 mg/kg, ip relative to control. The test is classed as functional. As to conditions: route intraperitoneal.
The test system of test [7] is Pichia kudriavzevii. Kind of test: Antifungal activity against Candida krusei A15052 by 2-fold tube dilution method. The test is classed as functional.
In test [8] the test system is B16. As to the kind of experiment: Antitumor activity against mouse B16 cells xenografted in BDF1 mouse assessed as median survival time at 0.4 mg/kg. The class given is functional.
Test [9] relates to B16. As to the kind of experiment: Antitumor activity against mouse B16 cells xenografted in BDF1 mouse assessed as median survival time at 0.8 mg/kg. The class given is functional.
Test [10] deals with B16. As to the kind of experiment: Antitumor activity against mouse B16 cells xenografted in BDF1 mouse assessed as change in tumor average weight at 0.8 mg/kg. The test is classed as functional.
For test [11], the system named is B16. As to the kind of experiment: Antitumor activity against mouse B16 cells xenografted in BDF1 mouse assessed as change in tumor average weight at 1.6 mg/kg. The test is classed as functional.
In test [12] the test system is Mus musculus. As to the kind of experiment: Toxicity in BDF1 mouse xenografted with mouse B16 cells assessed as survival at 0.05 mg/kg after 5 days. The test is classed as organism-based. Also noted: dose 0.05 mg/kg.
For test [13], the system named is L1210. Kind of test: Antitumor activity against mouse L1210 cells xenografted in BDF1 mouse assessed as change in tumor average weight at 0.4 mg/kg, ip. The test is classed as functional. As to conditions: route intraperitoneal.
Test [14] concerns B16. Kind of test: Antitumor activity against mouse B16 cells xenografted in BDF1 mouse assessed as median survival time at 0.05 mg/kg. The class given is functional.
For test [15], the system named is Trichophyton mentagrophytes. As to the kind of experiment: Antifungal activity against Trichophyton mentagrophytes A-9870 by 2-fold tube dilution method. The class given is functional.
Test [16] deals with Serratia marcescens. Kind of test: Antibacterial activity against Serratia marcescens A20019 by 2-fold tube dilution method. The test is classed as functional.

Each structure is given as a SMILES string. Where only a bound is given, the exact number is not on record here.

As usually defined, the MIC is the smallest concentration in the dilution series that meets the test's criterion for growth inhibition. Low values mean greater potency, high ones weaker potency. As usually defined, the T/C is the ratio of treated to control.

Regarding `CC[C@@]1(O)C[C@H](O[C@H]2C[C@H](N(C)C)[C@H](O[C@H]3C[C@H](O)[C@H](O[C@@H]4O[C@@H](C)C(=O)C=C4N)[C@@H](C)O3)[C@@H](C)O2)c2c(cc3c(c2O)C(=O)c2c(O)ccc(O)c2C3=O)[C@H]1C(=O)OC` [RUDOLPHOMYCIN], the MIC in [1] is > 16 µg/mL; in test [2] it was > 16 µg/mL; in test [7], > 16 µg/mL; in [15], > 16 µg/mL; in [16] it was > 125 µg/mL. In addition, the T/C worked out at 130% in test [3], 145% in test [4], 160% in test [5] and 107% in test [6]. Further, the Activity is 26.5 days in [8]; 29 days in test [9]; -0.2 g in [10]; -2.5 g in [11]; 0.9 g in test [13]; 22 days in test [14]. In addition, the AC50 result in test [12] is “Non-toxic”.
